Laboratory results from publication PMC10020352 (Frontiers in Pharmacology, 2023).
Where two headings read alike, the source gives them in different places. Where a SMILES comes first, the peptide text is derived from it. [ ]: non-standard residue; d: D form. Phe(4-NO2) = N[C@@H](Cc1ccc([N+](=O)[O-])cc1)C(=O)O; Phe(4-Cl) = N[C@@H](Cc1ccc(Cl)cc1)C(=O)O; NMeR = CN[C@@H](CCCNC(=N)N)C(=O)O; Aoc = NCCCCCCCC(=O)O; Sar = CNCC(=O)O

Tests used:
DOP receptor = biological target: T1, DOP receptor (Homo sapiens, UniProt P41143); test: cell-based
T1 construct: expressed in transfected cells; host or cells: HEK293

MOP receptor = biological target: T2, MOP receptor (Homo sapiens, UniProt P35372); test: cell-based
T2 construct: expressed in transfected cells; host or cells: HEK293

[1] = biological target: T3, bovine pancreatic trypsin (Bos taurus, UniProt P00760); test: Metabolic stability in trypsin; assay type: in vitro ADME; settings: bovine pancreatic trypsin 2.5 μg/mL, pH 8-8.5, 37°C, peptide 100 μM; read-out: Stability (t1/2) Trypsin
T3 sequence (P00760 24-246): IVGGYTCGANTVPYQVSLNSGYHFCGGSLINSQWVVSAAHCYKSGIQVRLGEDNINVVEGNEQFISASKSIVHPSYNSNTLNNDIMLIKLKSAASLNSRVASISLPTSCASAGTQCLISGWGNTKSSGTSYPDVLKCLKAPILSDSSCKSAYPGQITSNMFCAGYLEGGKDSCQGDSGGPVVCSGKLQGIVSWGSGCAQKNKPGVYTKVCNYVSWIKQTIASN
Description: (§1) Whole blood was collected in-house from adult mixed-gender Wistar rats (RRID: RGD_150520162), and plasma was prepared in 0.2% EDTA as per standard practice. Peptides (final 100 μM) were incubated with pooled rat plasma at 37°C. Samples were collected at different time intervals 0, 5, 10, 15, 30, 60, and 120 min. At each time point, collected samples were immediately added to three volumes of cold ACN. This mixture was vortexed for 30 s and then centrifuged at room temperature (13 K rpm, 5 min). The supernatant was taken and directly placed in glass HPLC vials for LCMS analysis. The protocol for the trypsin stability assay was as for the plasma stability assay except for the […] (bovine pancreatic trypsin 2.5 μg/mL in NH4HCO3 buffer, approx. pH 8–8.5, 37°C).
(§2) Relative concentrations of each peptide from stability assays in plasma or trypsin were analysed using an Agilent binary LC system consisting of an Agilent 1290 Infinity LC pump, Agilent 1,290 auto-sampler coupled with Triple Quad Mass-Spectrometer (MS, model 6460, Agilent Technologies). A bidentate C18 HPLC column (Cogent, 100 Å, […]) with a binary solvent gradient composed of Solvent: A 0.1%v/v formic acid in MQ water and Solvent B: 0.1% v/v formic acid in ACN was used for the separation. The MS parameters were optimised for all compounds to obtain the highest signal in positive Total Ion Current (TIC) mode. Data were analysed using a combination of Microsoft Excel and GraphPad Prism software packages. Data was normalised to time point zero (immediately after compound addition) and expressed in percentages from t = 0. Half-lives were calculated in GraphPad Prism software (v8.3).

[2] = Metabolic stability in rat plasma; assay type: in vitro ADME; settings: pooled rat plasma, 37°C, peptide 100 μM; for half-life: rat, plasma, read-out: Stability (t1/2) Plasma
Description: as §1, §2

KOP receptor [3] = biological target: T4, KOP receptor (Homo sapiens, UniProt P41145); assay type: cell-based
[4] = system: pERK1/2 in HEK293-KOP receptor cells; assay type: cell-based
KOP receptor [5] = biological target: T4, KOP receptor; test: cell-based; assay type: cell-based
KOP receptor [6] = biological target: T4, KOP receptor; test: biochemical; assay type: binding
[7] = system: FCA model of inflammatory nociception; settings: rat

T1 sequence (P41143 whole entry): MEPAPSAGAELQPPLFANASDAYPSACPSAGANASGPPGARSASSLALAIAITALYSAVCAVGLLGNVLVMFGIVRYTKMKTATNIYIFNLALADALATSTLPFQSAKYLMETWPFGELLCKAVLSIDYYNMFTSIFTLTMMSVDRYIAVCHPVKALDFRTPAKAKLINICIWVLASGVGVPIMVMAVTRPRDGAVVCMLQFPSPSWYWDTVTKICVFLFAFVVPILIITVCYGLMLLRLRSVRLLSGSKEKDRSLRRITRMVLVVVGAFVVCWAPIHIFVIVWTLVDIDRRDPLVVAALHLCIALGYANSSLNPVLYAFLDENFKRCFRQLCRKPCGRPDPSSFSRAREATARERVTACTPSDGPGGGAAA
T2 sequence (P35372 whole entry): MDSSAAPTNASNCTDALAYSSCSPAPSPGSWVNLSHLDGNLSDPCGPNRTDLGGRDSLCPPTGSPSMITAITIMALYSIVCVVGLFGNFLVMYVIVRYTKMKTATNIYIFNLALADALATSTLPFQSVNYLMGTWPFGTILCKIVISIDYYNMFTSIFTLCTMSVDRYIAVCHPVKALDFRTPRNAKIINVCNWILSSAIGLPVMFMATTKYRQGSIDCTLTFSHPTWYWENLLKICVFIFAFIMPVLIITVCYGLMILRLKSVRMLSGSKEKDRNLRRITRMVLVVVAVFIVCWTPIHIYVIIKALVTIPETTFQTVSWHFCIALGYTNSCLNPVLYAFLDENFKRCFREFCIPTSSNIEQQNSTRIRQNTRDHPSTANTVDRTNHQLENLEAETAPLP
T4 sequence (P41145 whole entry): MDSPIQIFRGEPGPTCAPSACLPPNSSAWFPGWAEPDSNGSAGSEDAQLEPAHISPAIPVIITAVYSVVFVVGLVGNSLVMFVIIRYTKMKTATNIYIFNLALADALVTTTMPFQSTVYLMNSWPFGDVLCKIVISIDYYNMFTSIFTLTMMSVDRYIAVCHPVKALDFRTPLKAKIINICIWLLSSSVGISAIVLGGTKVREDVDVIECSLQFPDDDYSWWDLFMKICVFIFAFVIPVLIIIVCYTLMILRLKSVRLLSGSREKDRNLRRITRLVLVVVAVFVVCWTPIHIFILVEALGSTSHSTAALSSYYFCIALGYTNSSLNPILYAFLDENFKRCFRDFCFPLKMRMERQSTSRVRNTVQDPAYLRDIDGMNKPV

For `CC(C)C[C@H](NC(=O)[C@H](Cc1ccccc1)NC(=O)CNC(=O)CNC(=O)[C@@H](N)Cc1ccc(O)cc1)C(=O)N[C@@H](CCCNC(=N)N)C(=O)N[C@@H](CCCNC(=N)N)C(=O)O` [Dyn 1-7, reference compound], which EC50 (DOP receptor; read-out: Activity (EC50) DOP) is on record?
Its EC50 is 0.87 µM.

And the EC50 (MOP receptor; read-out: Activity (EC50) MOP)?
The EC50 was 3.74 µM.

And the half-life [1]?
Its half-life is < 1 min.

What about the half-life [2] of the same compound?
The half-life was 8.1 min.

What about the “KOP receptor desensitisation (maximal cAMP effect after pre-treatment)” value (KOP receptor [3]) of the same compound?
The value was “no discernible desensitisation”.

And the “bias factor β (cAMP versus pERK)” value [4]?
Its value is “bias towards pERK”.

And the “pERK1/2 expression / activity” value [4]?
The value was “time and concentration-dependent pERK expression”.

With `CC(C)C[C@H](NC(=O)[C@H](Cc1ccc([N+](=O)[O-])cc1)NC(=O)CN(C)C(=O)[C@@H](N)Cc1ccc(O)cc1)C(=O)N[C@@H](CCCNC(=N)N)C(=O)N[C@H](CCCNC(=N)N)C(N)=O` [KA204] (H-Y[Sar][Phe(4-NO2)]LR[dR]-NH2) as the compound, how does the EC50 (KOP receptor [5]) read?
Its EC50 is 7.5 nM.

And the “selectivity for KOP receptor over MOP receptor and DOP receptor” value (KOP receptor [5])?
Its value is > 1000 fold.

What about the EC50 (DOP receptor) of the same compound?
Its EC50 is > 10 µM.

And the EC50 (MOP receptor)?
The EC50 was > 10 µM.

What about the half-life [1] of the same compound?
Its half-life is 15.4 min.

What about the “Stability (t1/2) Plasma” value [2] of the same compound?
The value was 71 min.

And the half-life [2]?
The half-life was > 60 min.

And the IC50 (KOP receptor [6])?
The IC50 was 30.2 nM.

And the Ki (KOP receptor [6])?
Its Ki is 2.8 nM.

What about the IC50 (KOP receptor [6]; IC50) of the same compound?
Its IC50 is 30.2 nM.

And the “paw withdrawal threshold in the contralateral (uninflamed, untreated) paw” value ([7]; in vivo)?
The value was “not observed”.

Which “inhibition of peptide cAMP modulation by naloxone” value (KOP receptor [5]) does the source give for `CC(C)C[C@H](NC(=O)[C@H](Cc1ccc(Cl)cc1)NC(=O)CN(C)C(=O)[C@@H](N)Cc1ccc(O)cc1)C(=O)N[C@@H](CCCNC(=N)N)C(=O)N[C@H](CCCNC(=N)N)C(=O)NCCCCCCCC(N)=O` [KA305] (H-Y[Sar][Phe(4-Cl)]LR[dR][Aoc]-NH2) here?
Its value is “significantly blocked”.

And the half-life [1]?
Its half-life is 4.9 min.

And the “Log IC50” value (KOP receptor [6])?
Its value is -7.14.

What about the “binding affinity to KOP receptor (in words)” value (KOP receptor [6]) of the same compound?
Its value is “strong binders”.

What about the IC50 (KOP receptor [6]; read-out: IC50) of the same compound?
Its IC50 is 72.6 nM.

What about the “KOP receptor desensitisation (maximal cAMP effect after pre-treatment)” value (KOP receptor [3]) of the same compound?
Its value is “modest but significant desensitisation”.

And the “bias factor β (cAMP versus pERK)” value [4]?
Its value is “bias towards cAMP”.

And the “pERK1/2 expression / activity” value [4]?
Its value is “influenced pERK induction at higher concentrations”.

What about the “overall efficacy (AUC of in vivo effect)” value [7] of the same compound?
Its value is “significantly better efficacy than U50488H”.

What about the “Efficacy Index (Ie)” value ([7]; in vivo) of the same compound?
Its value is “statistically significant higher Ie over morphine”.

What about the “antinociceptive activity (paw withdrawal threshold)” value ([7]; in vivo) of the same compound?
Its value is “showed antinociceptive activity”.

And the “effect of naloxone on peptide-induced antinociception” value ([7]; in vivo)?
Its value is “blocked by pre-administration of naloxone”.

And the “effect on oedema of the affected paw” value ([7]; in vivo)?
Its value is “without effecting oedema”.

And the “paw withdrawal threshold in the contralateral (uninflamed, untreated) paw” value ([7]; in vivo)?
The value was “not observed”.

For `CC(C)C[C@H](NC(=O)[C@H](Cc1ccc([N+](=O)[O-])cc1)NC(=O)CN(C)C(=O)[C@@H](N)Cc1ccc(O)cc1)C(=O)N(C)[C@@H](CCCNC(=N)N)C(=O)N(C)[C@@H](CCCNC(=N)N)C(N)=O` [KA311] (H-Y[Sar][Phe(4-NO2)]L[NMeR][NMeR]-NH2), which EC50 (KOP receptor [5]) is on record?
Its EC50 is 31 nM.

What about the “selectivity for KOP receptor over MOP receptor and DOP receptor” value (KOP receptor [5]) of the same compound?
The value was > 1000 fold.

And the EC50 (DOP receptor)?
The EC50 was > 10 µM.

And the EC50 (MOP receptor)?
The EC50 was > 10 µM.

What about the half-life [1] of the same compound?
The half-life was > 1000 min.

What about the Ki (KOP receptor [6]) of the same compound?
The Ki was 180 nM.

What about the IC50 (KOP receptor [6]; IC50) of the same compound?
Its IC50 is 1950 nM.

What about the “paw withdrawal threshold in the contralateral (uninflamed, untreated) paw” value ([7]; in vivo) of the same compound?
Its value is “not observed”.
